Experimental data published in patent US10597390B2, “Indoles for use in influenza virus infection” (Janssen Sciences Ireland UC, priority 2014, dated 2020).

What was measured:
in vitro = conditions: dog, TOX MDCK CC50
[1] = test system: influenza virus A/Taiwan/1/86 (H1N1); assay: organism not typed; type: cell-based; conditions: MDCK, 72 h, CPE in MDCK cells, three days post-virus exposure, ATPlite

Compound	CC50 at 3 days (in vitro)	IC50 [1]	melting point
Cc1cc(F)c2[nH]cc(-c3ncc(F)c(N[C@@H]4CCC[C@@H](NC(=O)c5cncn5C)C4)n3)c2c1 (racemic) [Compound 198]	9.7 µM	0.04 µM	98 °C
N#Cc1cc(F)c2[nH]cc(-c3ncc(F)c(N[C@H]4CCC[C@@H](NC(=O)c5c[nH]nn5)C4)n3)c2c1 [Compound 172]	> 25 µM	0.002 µM	> 300 °C
CCn1nccc1C(=O)N[C@@H]1CCC[C@H](Nc2nc(-c3c[nH]c4c(F)cc(F)cc34)ncc2F)C1 [Compound 115]	> 25 µM	0.38 µM	266.8 °C
Nc1nccc(C(=O)N[C@@H]2CCC[C@H](Nc3nc(-c4c[nH]c5c(F)cc(F)cc45)ncc3F)C2)n1 [Compound 123]	> 25 µM	0.011 µM	235 °C
CC(C)(c1cccs1)[C@H](CC(=O)O)Nc1nc(-c2c[nH]c3c(F)cc(F)cc23)ncc1F [Compound 231]	2.6 µM	0.01 µM	271.1 °C
Cn1nc(N)cc1C(=O)N[C@@H]1CCC[C@H](Nc2nc(-c3c[nH]c4c(F)cc(Cl)cc34)ncc2F)C1 [Compound 68]	21 µM	0.003 µM	267.2 °C
Cc1cc(F)c2[nH]cc(-c3nc(N[C@@H]4CCC[C@@H](NC(=O)c5ncoc5C)C4)c(F)cc3C#N)c2c1 (racemic) [Compound 192]	> 25 µM	0.011 µM	> 250 °C
Cc1scnc1C(=O)N[C@@H]1CCC[C@H](Nc2nc(-c3c[nH]c4c(F)cc(Cl)cc34)ncc2F)C1 [Compound 47]	7.4 µM	0.003 µM	> 300 °C
Cc1c[nH]c(C(=O)N[C@@H]2CCC[C@H](Nc3nc(-c4c[nH]c5c(F)cc(F)cc45)ncc3F)C2)n1 [Compound 135]	8.4 µM	0.002 µM	281.9 °C
O=C(O)c1n[nH]nc1C(=O)N[C@@H]1CCC[C@H](Nc2nc(-c3c[nH]c4c(F)cc(F)cc34)ncc2F)C1 [Compound 147]	> 25 µM	0.047 µM	> 300 °C
NC(=O)c1cc(F)c(N[C@@H]2CCC[C@H](NC(=O)N3CCCC3)C2)nc1-c1c[nH]c2c(F)cc(F)cc12 (racemic) [Compound 23]	> 25 µM	0.14 µM	249.2 °C
O=C(N[C@@H]1CCC[C@H](Nc2nc(-c3c[nH]c4c(F)cc(F)cc34)ncc2F)C1)c1cncnc1 [Compound 138]	> 25 µM	0.039 µM	> 300 °C
CN1CCC[C@@H]1C(=O)N[C@@H]1CCC[C@H](Nc2nc(-c3c[nH]c4c(F)cc(Cl)cc34)ncc2F)C1 [Compound 62]	6.9 µM	0.73 µM	196.5 °C
Cc1cc(F)c2[nH]cc(-c3ncc(F)c(NC(CC(=O)O)C(C)(C)c4nccs4)n3)c2c1 (stereo not drawn) [Compound 233]	17.3 µM	0.015 µM	237.2 °C
Cc1cc(F)c2[nH]cc(-c3ncc(F)c(N[C@@H]4CCC[C@@H](NC(=O)c5ncoc5C)C4)n3)c2c1 (racemic) [Compound 194]	11.2 µM	0.017 µM	140 °C
Cn1nnnc1C(=O)N[C@@H]1CCC[C@H](Nc2nc(-c3c[nH]c4c(F)cc(F)cc34)ncc2F)C1 [Compound 152]	> 5 µM	0.04 µM	250.3 °C
O=C(N[C@@H]1CCC[C@H](Nc2nc(-c3c[nH]c4c(F)cc(Cl)cc34)ncc2F)C1)c1cnccn1 [Compound 33]	13.8 µM	0.007 µM	249.9 °C
O=C(N[C@@H]1CCC[C@H](Nc2nc(-c3c[nH]c4c(F)cc(Cl)cc34)ncc2F)C1)c1cccc(O)n1 [Compound 35]	> 19.4 µM	0.003 µM	253.4 °C
Nc1cc(C(=O)N[C@@H]2CCC[C@H](Nc3nc(-c4c[nH]c5c(F)cc(F)cc45)ncc3F)C2)n[nH]1 [Compound 131]	19.4 µM	0.004 µM	245.7 °C
COc1ccnc(C(=O)N[C@@H]2CCC[C@H](Nc3nc(-c4c[nH]c5c(F)cc(F)cc45)c(C#N)cc3F)C2)c1 [Compound 161]	> 25 µM	0.003 µM	285.5 °C
Cc1ncn(C)c1C(=O)N[C@@H]1CCC[C@H](Nc2nc(-c3c[nH]c4c(F)cc(F)cc34)ncc2F)C1 [Compound 113]	> 25 µM	0.039 µM	> 300 °C
Cc1cc(F)c2[nH]cc(-c3nc(N[C@@H]4CCC[C@@H](NC(=O)c5ccccn5)C4)c(F)cc3C#N)c2c1 (racemic) [Compound 22, N-((cis)-3-((5-cyano-3-fluoro-6-(7-fluoro-5-methyl-1H-indol-3-yl)-pyridin-2-yl)amino)cyclohexyl)picolinamide]	> 25 µM	0.012 µM	98 °C

Compound	CC50 at 3 days (in vitro)	IC50 [1]	melting point
CCn1nccc1C(=O)N[C@@H]1CCC[C@H](Nc2nc(-c3c[nH]c4c(F)cc(Cl)cc34)ncc2F)C1 [Compound 60]	> 25 µM	0.002 µM	> 300 °C
Cc1cc(F)c2[nH]cc(-c3nc(N[C@H]4CCC[C@@H](NC(=O)c5cn(C)cn5)C4)c(F)cc3C#N)c2c1 (racemic) [Compound 195]	6.6 µM	0.02 µM	> 250 °C
Cc1cc(F)c2[nH]cc(-c3ncc(F)c(N[C@@H](CC(=O)O)C(C)(C)c4ccccn4)n3)c2c1 [Compound 239]	15.3 µM	0.01 µM	219 °C
Cc1ncn(C)c1C(=O)N[C@@H]1CCC[C@H](Nc2nc(-c3c[nH]c4c(F)cc(Cl)cc34)ncc2F)C1 [Compound 45]	> 25 µM	0.033 µM	> 300 °C
O=C(N[C@@H]1CCC[C@H](Nc2nc(-c3c[nH]c4c(F)cc(Cl)cc34)ncc2F)C1)c1cc[nH]n1 [Compound 51]	2.8 µM	0.001 µM	263.3 °C
O=C(N[C@@H]1CCC[C@H](Nc2nc(-c3c[nH]c4c(F)cc(F)cc34)ncc2F)C1)c1ncccn1 [Compound 108]	> 24 µM	0.006 µM	> 300 °C
O=C(N[C@@H]1CCC[C@H](Nc2nc(-c3c[nH]c4c(F)cc(Cl)cc34)ncc2F)C1)c1c[nH]cn1 [Compound 63]	8.9 µM	0.002 µM	245 °C
Cc1cnc(C(=O)N[C@@H]2CCC[C@H](Nc3nc(-c4c[nH]c5c(F)cc(Cl)cc45)ncc3F)C2)cn1 (relative stereo) [Compound 11, N-((1R*,3S*)-3-((2-(5-chloro-7-fluoro-1H-indol-3-yl)-5-fluoropyrimidin-4-yl)amino)cyclohexyl)-5-methylpyrazine-2-carboxamide]	9 µM	0.04 µM	251.5 °C
Cc1c(C(=O)N[C@@H]2CCC[C@H](Nc3nc(-c4c[nH]c5c(F)cc(F)cc45)ncc3F)C2)nnn1C [Compound 117]	8.7 µM	0.011 µM	202 °C
Cc1cc(C(=O)N[C@@H]2CCC[C@H](Nc3nc(-c4c[nH]c5c(F)cc(Cl)cc45)ncc3F)C2)n[nH]1 [Compound 43]	2.7 µM	0.004 µM	189.2 °C
O=C(N[C@@H]1CCC[C@H](Nc2nc(-c3c[nH]c4c(F)cc(F)cc34)ncc2F)C1)c1cc(Cl)ccn1 [Compound 99]	10.2 µM	0.012 µM	86 °C
Cn1cnc(C(=O)N[C@@H]2CCC[C@H](Nc3nc(-c4c[nH]c5c(F)cc(F)cc45)ncc3F)C2)n1 [Compound 134]	10.3 µM	0.014 µM	183.2 °C
Cn1cc(C(=O)N[C@@H]2CCC[C@H](Nc3nc(-c4c[nH]c5c(F)cc(Cl)cc45)ncc3F)C2)nn1 [Compound 67]	0.84 µM	0.012 µM	283 °C
Cc1cc(F)c2[nH]cc(-c3ncc(F)c(NC(CC(=O)O)C(C)(C)C)n3)c2c1 (racemic) [Compound 167]	3.5 µM	0.03 µM	182 °C
Cn1ncc(N)c1C(=O)N[C@@H]1CCC[C@H](Nc2nc(-c3c[nH]c4c(F)cc(Cl)cc34)ncc2F)C1 [Compound 79]	> 25 µM	0.038 µM	166.4 °C
CN(C)c1ccnc(C(=O)N[C@@H]2CCC[C@H](Nc3nc(-c4c[nH]c5c(F)cc(F)cc45)ncc3F)C2)c1 [Compound 121]	15.7 µM	0.006 µM	282.8 °C
Nc1n[nH]cc1C(=O)N[C@@H]1CCC[C@H](Nc2nc(-c3c[nH]c4c(F)cc(Cl)cc34)ncc2F)C1 [Compound 77]	9.9 µM	0.003 µM	133 °C
COc1cccc(C(=O)N[C@@H]2CCC[C@H](Nc3nc(-c4c[nH]c5c(F)cc(F)cc45)ncc3F)C2)n1 [Compound 98]	14.7 µM	0.043 µM	240 °C
Cn1cnnc1C(=O)N[C@@H]1CCC[C@H](Nc2nc(-c3c[nH]c4c(F)cc(F)cc34)ncc2F)C1 [Compound 143]	9.9 µM	0.039 µM	169.8 °C
C=CCC(C)(C)C(CC(=O)O)Nc1nc(-c2c[nH]c3c(F)cc(F)cc23)c(C#N)cc1F (stereo not drawn) [Compound 241, 3-((5-cyano-6-(5,7-difluoro-1H-indol-3-yl)-3-fluoropyridin-2-yl)amino)-4,4-dimethylhept-6-enoic Acid]	0.05 µM	0.012 µM	> 260 °C
Cc1cc(F)c2[nH]cc(-c3ncc(F)c(N[C@@H]4CCC[C@H](NC(=O)c5ccccn5)C4)n3)c2c1 (racemic) [Compound 21]	4.8 µM	0.004 µM	208 °C
